In patent publication US20210308117A1, “METHODS OF TREATING VIRAL INFECTIONS USING INHIBITORS OF NUCLEOTIDE SYNTHESIS PATHWAYS” (priority 2020, published 2021):
Like-named read-outs stand apart in the source and are kept apart here.

What was measured:
[1] = tested on: SARS-CoV-2; assay: microbe, parasite or virus in culture; type: cell-based
[2] = weekly rapid iv injection; previously treated patients with advanced lung cancer; cited from earlier work
[3] = cited from earlier work
[4] = tested on: Vero E6 cells; settings: remdesivir co-treated with brequinar
[5] = tested on: H1-HeLa cells; settings: human, 3 days
[6] = in vivo, iv; cited from earlier work
[7] = tested on: HuH7 (human hepatocellular carcinoma); settings: cited from earlier work
[8] = tested on: RNA virus; assay: Daily dosing of brequinar in a subject infected with an RNA virus; type: in vivo; settings: once per day for five consecutive days; first peak in brequinar level
Experimental: The mechanism by which administration of a DHODH inhibitor according to a daily dosing regimen inhibits viral replication is illustrated below. […] Throughout the course of the dosing regimen, levels of intracellular pyrimidines, such as uridine, and viral replication are measured.

[9] = tested on: 16HBE (human bronchial epithelial); settings: cited from earlier work
[10] = tested on: Vero (monkey kidney); settings: cited from earlier work
[11] = Adverse events in subjects receiving brequinar; settings: i.v. once a week
[12] = tested on: Vero76 (monkey kidney); settings: cited from earlier work
[13] = clinical; settings: human, in vivo, po
[14] = human, in vivo
[15] = tested on: H1-HeLa cells; assay: Cytotoxicity XTT assay in H1-HeLa cells; settings: read-out: TC50, 3 days
[16] = tested on: Primary Human Fibroblasts; settings: cited from earlier work
[17] = tested on: HeLa (human cervical tumor); settings: cited from earlier work
[18] = 1-h i.v. infusion every 3 weeks

NC(=O)c1ncn([C@@H]2O[C@H](CO)[C@@H](O)[C@H]2O)n1 [ribavirin] showed an EC50 ([1]; Severe acute respiratory syndrome coronavirus 2, Vero C1008, SARS-CoV-2, Vero E6, MOI 0.05, read-out: EC50 (50% of the maximum CPE-protection effect of the compound)) greater than 50 µM.

In the case of NC(=O)c1[nH]nc([C@@H]2O[C@H](CO)[C@@H](O)[C@H]2O)c1O [pyrazofurin, 5-[(2S,3R,4S,5R)-3,4-dihydroxy-5-(hydroxymethyl)oxolan-2-yl]-4-hydroxy-1H-pyrazole-3-carboxamide], the therapeutic value [2] is listed as “little therapeutic value as a single agent”.

For Cc1c(-c2ccc(-c3ccccc3F)cc2)nc2ccc(F)cc2c1C(=O)O [brequinar sodium], the “recommended dose for phase II studies, good-risk patients” value [3, 18] is given as 1,800 mg/m^2, the “recommended dose for phase II studies, poor-risk patients” value [3, 18] is given as 1,200 mg/m^2 and the “maximum tolerable dose, good-risk patients” value ([3]; i.v. infusion every 3 weeks) is given as 2,250 mg/m^2. For the same compound, the “maximum tolerable dose, poor-risk patients” value ([3]; i.v. infusion every 3 weeks) was 1,500 mg/m^2.

For CCC(CC)COC(=O)[C@H](C)N[P@](=O)(OC[C@H]1O[C@@](C#N)(c2ccc3c(N)ncnn23)[C@H](O)[C@@H]1O)Oc1ccccc1 [remdesivir], the “fold increase in activity of remdesivir” value [1] was greater than 6.8 fold, the “E(Max)” value ([1]; SARS-CoV-2, Vero E6, maximum CPE-protection effect) was 100 and the “cytotoxicity by the co-treatment” value [4] was “No enhanced cytotoxicity”.

CCOC(=O)/C=C/[C@H](C[C@@H]1CCNC1=O)NC(=O)[C@@H](CC(=O)[C@@H](NC(=O)c1cc(C)on1)C(C)C)Cc1ccc(F)cc1 [Rupintrivir] showed a CC50 [5] greater than 0.1 µM.

In the case of Cc1c(-c2ccc(-c3ccccc3F)cc2)nc2ccc(F)cc2c1C(=O)O [brequinar, 6-fluoro-2-(2′-fluoro-1,1′ biphenyl-4-yl)-3-methyl-4-quinoline carboxylic acid], the “recommended dose for phase II evaluation, good risk patients” value [6] is given as 250 mg/m^2, the “recommended dose for phase II evaluation, poor risk patients” value [6] is given as 135 mg/m^2 and the CC50 [7] is given as greater than 25 µM. For the same compound, the intracellular pyrimidine pool [8] was “dramatic decrease in the intracellular pyrimidine pool”, the CC50 [9] was greater than 50 µM and the CC50 [10] was greater than 50 µM. For the same compound, the “Infection: No. of Patients, Max Grade 1” value [11] was 4, the “Infection: No. of Patients, Max Grade 2” value [11] was 3 and the “Infection: No. of Patients, Max Grade 3” value [11] was 0. The “Infection: No. of Patients, Max Grade 4” value [11] was 0, the CC50 [12] was greater than 50 µM and the bioavailability [13] was greater than 90%. The “cumulative effect of repeated doses” value [14] was “No cumulative effective of repeated doses”, the CC50 [15] was 0.3 µM and the CC50 [16] was greater than 50 µM. The CC50 [17] was greater than 25 µM.

For CC(C)C[C@H](NC(=O)OCc1ccccc1)C(=O)N[C@@H](CC1CCNC1=O)C(O)S(=O)(=O)[O-].[Na+] (stereo partly drawn) [GC-376], the “SI50 (Selective Index 50 = CC50/IC50)” value [1] was greater than 24.5.
